Experimental data from a compilation of properties of binary mixtures (doi:10.1021/acs.jced.1c00023).

Experiment: xn = mol fraction of the nth substance listed
Settings: 101.3 kPa

Oc1cccc(O)c1O + CCCCCCCCCCCC[N+](C)(C)C.[Br-]
electrical conductivity (293.15 K, x2 = 0.333): 0.0047 S/m
speed of sound (293.15 K, x2 = 0.333): 1614.6 m/s
viscosity (293.15 K, x2 = 0.333): 7500 mPa·s
electrical conductivity (298.15 K, x2 = 0.333): 0.0082 S/m
speed of sound (298.15 K, x2 = 0.333): 1592.1 m/s
viscosity (298.15 K, x2 = 0.333): 5650 mPa·s
electrical conductivity (303.15 K, x2 = 0.333): 0.0139 S/m
speed of sound (303.15 K, x2 = 0.333): 1572.5 m/s
viscosity (303.15 K, x2 = 0.333): 3900 mPa·s
electrical conductivity (308.15 K, x2 = 0.333): 0.0234 S/m
speed of sound (308.15 K, x2 = 0.333): 1554.9 m/s
viscosity (308.15 K, x2 = 0.333): 2300 mPa·s
electrical conductivity (313.15 K, x2 = 0.333): 0.0364 S/m
speed of sound (313.15 K, x2 = 0.333): 1538.8 m/s
viscosity (313.15 K, x2 = 0.333): 1500 mPa·s
electrical conductivity (318.15 K, x2 = 0.333): 0.0539 S/m
speed of sound (318.15 K, x2 = 0.333): 1523.4 m/s
viscosity (318.15 K, x2 = 0.333): 1000 mPa·s
electrical conductivity (323.15 K, x2 = 0.333): 0.0773 S/m
speed of sound (323.15 K, x2 = 0.333): 1508.7 m/s
viscosity (323.15 K, x2 = 0.333): 750 mPa·s
electrical conductivity (328.15 K, x2 = 0.333): 0.105 S/m
speed of sound (328.15 K, x2 = 0.333): 1494.3 m/s
viscosity (328.15 K, x2 = 0.333): 550 mPa·s

Oc1cccc(O)c1O + CCC[N+](CCC)(CCC)CCC.[Br-]
electrical conductivity (298.15 K, x2 = 0.5): 0.0031 S/m
speed of sound (298.15 K, x2 = 0.5): 1855.2 m/s
viscosity (298.15 K, x2 = 0.5): 25000 mPa·s
electrical conductivity (318.15 K, x2 = 0.5): 0.0259 S/m
speed of sound (318.15 K, x2 = 0.5): 1704.1 m/s
viscosity (318.15 K, x2 = 0.5): 4800 mPa·s
electrical conductivity (323.15 K, x2 = 0.5): 0.04 S/m
speed of sound (323.15 K, x2 = 0.5): 1674.1 m/s
viscosity (323.15 K, x2 = 0.5): 3500 mPa·s
electrical conductivity (328.15 K, x2 = 0.5): 0.0703 S/m
speed of sound (328.15 K, x2 = 0.5): 1652.9 m/s
viscosity (328.15 K, x2 = 0.5): 2550 mPa·s
